Assay results from PubChem BioAssay (NCI).
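Exposure lasted 48 hours, with cells grown in 96-well plates and compounds tested at five concentrations. At the TGI there is no net growth.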

Legend:
Test in all cases: growth of human tumour cells (NCI), 48 h
A498 renal = tested on: A498 renal
CAKI-1 renal = tested on: CAKI-1 renal
HS 578T breast = tested on: HS 578T breast
NCI-H226 lung = tested on: NCI-H226 lung
NCI-H460 lung = tested on: NCI-H460 lung
SF-268 CNS = tested on: SF-268 CNS
SK-OV-3 ovarian = tested on: SK-OV-3 ovarian
SN12C renal = tested on: SN12C renal
T-47D breast = tested on: T-47D breast
TK-10 renal = tested on: TK-10 renal

Structure (SMILES)	TGI (A498 renal) [µM]	TGI (CAKI-1 renal) [µM]	TGI (HS 578T breast) [µM]	TGI (NCI-H226 lung) [µM]	TGI (NCI-H460 lung) [µM]	TGI (SF-268 CNS) [µM]	TGI (SK-OV-3 ovarian) [µM]	TGI (SN12C renal) [µM]	TGI (T-47D breast) [µM]	TGI (TK-10 renal) [µM]
O=c1c2nc3ccccc3c(=O)n2ncn1-c1ccccc1Cl	> 100	> 100	> 100	> 100	> 100	> 100	> 100	> 100	> 100	> 100
C[C@H](NC(=O)c1ccc(CNC(=O)/C=C/c2cccc(Oc3ccccc3)c2)cc1)c1ccccc1	> 100	59.5	> 100	> 100	> 100	> 100	> 100	> 100	> 100	> 100
N#CC(=C1CCN(CCCC(=O)c2ccc(F)cc2)CC1)c1ccccc1	> 100	> 100	> 100	> 100	> 100	> 100	> 100	> 100	> 100	> 100
CCOC(=O)c1nc2ccccc2nc1NCc1cc(OC)c(OC)c(OC)c1	96.2	> 100	> 100	> 100	> 100	> 100	> 100	> 100	> 100	> 100
O=C(CCCN1CCC2(CC1)CC(=O)N(N1CCCCCC1)C2=O)c1ccccc1	> 100	> 100	> 100	> 100		> 100	> 100	> 100	> 100	> 100
CN1CCN(c2ncc3c(n2)sc2c(=O)n(-c4ccccc4)cnc23)CC1	> 100	> 100	> 100	> 100	> 100	> 100	> 100	> 100	> 100	> 100
CCCCc1ccc(Nc2nc(SC)c3[nH]cnc3n2)cc1	> 78.5	> 100	> 100	> 100	> 100	> 100	> 100	> 100	> 100	> 100
Cc1cc2c(cc1Cl)S(=O)(=O)OC(c1ccc([N+](=O)[O-])cc1)=N2	> 100	> 100	> 100	> 100	> 100	> 100	> 100	> 100	> 100	> 100
CCn1c(SCC(=O)NNC(=S)Nc2ccc([N+](=O)[O-])cc2)nc2ccccc2c1=O	> 100	> 100	> 100	> 100	> 100	> 100	> 100	> 100	> 100	> 100
CC1=NN(c2nc(N)nc(CSc3nc4n(c(=S)n3)CCN4)n2)C(C)(C)C1	> 100	61.2	41.3	53.1	> 100	35.2	71.6		54.1	> 100
CN(C)CCN(C)c1ccc2c(=O)n(CCN(C)C)c(=O)n3c4ccccc4c(=O)c1c23	5.36	1.08	8.65	1.59	2.23	0.559	16.7	2.64	9.77	5.43
Cn1c(O)c(C=Nc2ccccc2[N+](=O)[O-])c(=O)n(C)c1=O	> 100	> 100	> 100	> 100	> 100	> 100	> 100	> 100	> 100	> 100
O=C(CCc1ccc(O)c(O)c1)NCCc1cc(O)cc(O)c1	> 100	> 100	> 100	> 100	> 100	> 100	> 100	> 100	> 100	> 100
Cc1cn(C2CC(O)C(COC(=O)NCCC(F)(F)C(F)(F)C(F)(F)C(F)(F)F)O2)c(=O)[nH]c1=O (stereo not drawn)	> 100	> 100	> 100	> 100	> 100	> 100	> 100	> 100	> 100	> 100
Nc1cccc(/C=C/C(=O)N2CCN(CCOC(c3ccccc3)c3ccccc3)CC2)c1	31.6	34.8	45.6	39.8	30.6	35	32.7	33.9	33.1	28.3
Cc1cc(N(CCC#N)CCC#N)ccc1/C(N=Nc1ccc(C(=O)O)cc1)=N\NC(=O)c1cc(Cl)ccc1O	87.7	> 100	47.1	49.9	> 100	42.3	64.5	> 100	> 100	> 100
Cc1nn(C(=O)Cc2ccccc2)c2c1C(c1ccc(O)cc1O)SC(N)=N2 (stereo not drawn)	> 100	> 100	> 100	> 100	> 100	> 100	> 100	> 100	> 100	> 100
NC(=O)c1cc2ccc(O)cc2oc1=Nc1ccccc1	68.1	> 100	> 100	88.6	> 100	> 100	> 100	66	66.1	> 100
O=C1CSC(c2ccc([N+](=O)[O-])cc2)N1c1ccc(-n2c(-c3ccccc3)nc3ccccc3c2=O)cc1 (stereo not drawn)	> 100	> 100	> 100	> 100	> 100	> 100	> 100	> 100	> 100	> 100
